From US20260027221A1, “Targeted Pyrrolobenzodiazapine Conjugates” (BeOne Medicines I GmbH, priority 2023, published 2026) come the findings set out here.

Bounds are passed on as bounds.

Assay [1] deals with A375 cells. The assay can be described thus: Compounds cellular killing in A375 cancer line (Cell Titer-Glo, 6 days). Type of assay: cell-based, human. The note with it: Homo sapiens, A-375, 144 h, 6 days incubation, cell viability by Cell Titer-Glo. On the procedure:
A375 (ATCC, CRL-1619). […] The base medium for A375 is DMEM, high glucose, GlutaMAX™ Supplement (Gibco, 10566024). To make the complete growth medium, fetal bovine serum was added to the base mediumat a final concentration of 10% (Gibco, 10099-141C). The cell line was grown in a humidified 5% CO2 atmosphere at 37° C., and was regularly tested for the presence of mycoplasma with MycoAlert™ PLUS Mycoplasma Detection Kit (Lonza, LT07-710).
(§1) Payload direct killing by compounds 1-1 to 1-22 was assessed in A375 and Calu-6 cancer cell lines. Cells were seeded at 1E3/well (A375) 2E3/well (Calu-6) into 96-well plates (Greiner: 655090), 100 μL/well, and incubated at 37° C., 5% CO2, overnight. Fresh growth medium was added containing varying concentrations of compounds, 50 μL/well, and incubated at 37° C., 5% CO2, for 6 days. The cell viability detected by Cell Titer-Glo (Promega, G7573), 70 μL/well. The plates were allowed to incubate at room temperature for 10 minutes to stabilize the luminescent signal. The plates were analyzed with a microplate reader.
Background: ATP-based viability assays read luminescence as a measure of living cells.

Assay [2] has as its system Calu-6 cells. Description: Compounds cellular killing in Calu-6 cancer line (Cell Titer-Glo, 6 days). Type of assay: cell-based, human. The note with it: Homo sapiens, Calu-6, 144 h, 6 days incubation, cell viability by Cell Titer-Glo. The protocol: Calu-6 (ATCC, HTB-56). […] The base medium for Calu-6 is Eagle's Minimum Essential Medium (ATCC, 30-2003). To make the complete growth medium, fetal bovine serum was added to the base mediumat a final concentration of 10% (Gibco, 10099-141C). The cell line was grown in a humidified 5% CO2 atmosphere at 37° C., and was regularly tested for the presence of mycoplasma with MycoAlert™ PLUS Mycoplasma Detection Kit (Lonza, LT07-710).
as §1

In assay [1], `C=C1CCN2C(=O)c3cc(OC)c(OCCCCCOc4cc5c(cc4OC)C(=O)N4CC6(CC6)C[C@H]4C=N5)cc3N=C[C@@H]2C1` [Compound 1-7, (S)-7-methoxy-8-((5-(((S)-2-methoxy-8-methylene-12-oxo-6a,7,8,9,10,12-hexahydrobenzo[e]pyrido[1,2-a][1,4]diazepin-3-yl)oxy)pentyl)oxy)-1,11a-dihydro-3H,5H-spiro[benzo[e]pyrrolo[1,2-a][1,4]diazepine-2,1′-cyclopropan]-5-one] showed a concentration giving a half-maximal response (EC50) of 0.102 nM and an Emax of 89%. In assay [2], this compound registered an EC50 of 0.017 nM and an Emax of 97.7%.

With `COc1cc2c(cc1OCc1cccc(COc3cc4c(cc3OC)C(=O)N3CC5(CC5)C[C@H]3C=N4)c1)N=C[C@@H]1CC3(CC3)CN1C2=O` [Compound 1-8, (11aS,11a″S)-8,8″-((1,3-phenylenebis(methylene))bis(oxy))bis(7-methoxy-1,11a-dihydro-3H,5H-spiro[benzo[e]pyrrolo[1,2-a][1,4]diazepine-2,1′-cyclopropan]-5-one)], in assay [1], the 50% effective concentration (EC50) came out at 0.029 nM and the Emax amounted to 99.2%. Besides, in assay [2], it took 0.005 nM to reach a half-maximal effect (EC50) and the Emax was 98.4%.

Take `COc1cc2c(cc1OCc1cccc(COc3cc4c(cc3OC)C(=O)N3CC5(CC5)C[C@H]3CN4)c1)N=C[C@@H]1CC3(CC3)CN1C2=O` [Compound 1-9, (S)-7-methoxy-8-((3-((((S)-7-methoxy-5-oxo-5,11a-dihydro-1H,3H-spiro[benzo[e]pyrrolo[1,2-a][1,4]diazepine-2,1′-cyclopropan]-8-yl)oxy)methyl)benzyl)oxy)-1,10,11,11a-tetrahydro-3H,5H-spiro[benzo[e]pyrrolo[1,2-a][1,4]diazepine-2,1′-cyclopropan]-5-one]: in assay [1], it took 0.01 nM to reach a half-maximal effect (EC50) and the Emax turned out to be 99.9%. In assay [2], this compound gave an EC50 of 0.002 nM and an Emax of 99.7%.

As for `COc1cc2c(cc1OCc1cccc(COc3cc4c(cc3OC)C(=O)N3CC5(CC5)C[C@H]3CN4)c1)NC[C@@H]1CC3(CC3)CN1C2=O` [Compound 1-10], the concentration giving a half-maximal response (EC50) was > 1 nM in assay [1] and 0.358 nM in assay [2]. The Emax in assay [1] was 42%; in assay [2], 84.7%.

For `COc1cc2c(cc1OCC13CC(COc4cc5c(cc4OC)C(=O)N4CC6(CC6)C[C@H]4C=N5)(C1)C3)N=C[C@@H]1Cc3ccccc3CN1C2=O` [Compound 1-11, (S)-2-methoxy-3-((3-((((S)-7-methoxy-5-oxo-5,11a-dihydro-1H,3H-spiro[benzo[e]pyrrolo[1,2-a][1,4]diazepine-2,1′-cyclopropan]-8-yl)oxy)methyl)bicyclo[1.1.1]pentan-1-yl)methoxy)-7,12-dihydrobenzo[5,6][1,4]diazepino[1,2-b]isoquinolin-14(6aH)-one], the EC50 worked out at 6.11 nM in assay [1] and 0.34 nM in assay [2]. Moreover, the results for the Emax in assay [1] and in assay [2] were 99.9% and 99.4%, respectively.

As for `COc1cc2c(cc1OCC13CC(COc4cc5c(cc4OC)C(=O)N4Cc6ccccc6C[C@H]4CN5)(C1)C3)N=C[C@@H]1CC3(CC3)CN1C2=O` [Compound 1-12, (S)-2-methoxy-3-((3-((((S)-7-methoxy-5-oxo-5,11a-dihydro-1H,3H-spiro[benzo[e]pyrrolo[1,2-a][1,4]diazepine-2,1′-cyclopropan]-8-yl)oxy)methyl)bicyclo[1.1.1]pentan-1-yl)methoxy)-6,6a,7,12-tetrahydrobenzo[5,6][1,4]diazepino[1,2-b]isoquinolin-14(5H)-one], the EC50 is 297 nM in assay [1] and 108 nM in assay [2]. In addition, the Emax in assay [1] worked out at 97.5%; in assay [2] it was 99.4%.

In assay [1], `COc1cc2c(cc1OCCNCCOc1cc3c(cc1OC)C(=O)N1CC4(CC4)C[C@H]1C=N3)N=C[C@@H]1CC3(CC3)CN1C2=O` [Compound 1-13, (11aS,11a″S)-8,8″-((azanediylbis(ethane-2,1-diyl))bis(oxy))bis(7-methoxy-1,11a-dihydro-3H,5H-spiro[benzo[e]pyrrolo[1,2-a][1,4]diazepine-2,1′-cyclopropan]-5-one)] yielded an EC50 of 9.12 nM and an Emax of 100%. In assay [2], this compound came in with an EC50 of 1.62 nM and an Emax of 99.7%.

With `COc1cc2c(cc1OCCCOc1cc3c(cc1OC)C(=O)N1CC4(CC4)C[C@H]1C=N3)N=C[C@@H]1Cc3ccccc3CN1C2=O` [Compound 1-14, (S)-2-methoxy-3-(3-(((S)-7-methoxy-5-oxo-5,11a-dihydro-1H,3H-spiro[benzo[e]pyrrolo[1,2-a][1,4]diazepine-2,1′-cyclopropan]-8-yl)oxy)propoxy)-7,12-dihydrobenzo[5,6][1,4]diazepino[1,2-b]isoquinolin-14(6aH)-one], in assay [1], a half-maximal effect (EC50) was put at 0.033 nM and the Emax was found to be 98.9%. For the same compound, in assay [2], the EC50 was 0.01 nM and the Emax was 99.2%.

For `COc1cc2c(cc1OCCCOc1cc3c(cc1OC)C(=O)N1CC4(CC4)C[C@H]1CN3)N=C[C@@H]1Cc3ccccc3CN1C2=O` [Compound 1-15, (S)-2-methoxy-3-(3-(((S)-7-methoxy-5-oxo-5,10,11,11a-tetrahydro-1H,3H-spiro[benzo[e]pyrrolo[1,2-a][1,4]diazepine-2,1′-cyclopropan]-8-yl)oxy)propoxy)-7,12-dihydrobenzo[5,6][1,4]diazepino[1,2-b]isoquinolin-14(6aH)-one], the figures for the EC50 in assay [1] and in assay [2] were 0.134 nM and 0.045 nM, respectively. The Emax in assay [1] amounted to 99.5%; in assay [2], 99.7%.

In assay [1], `COc1cc2c(cc1OCCCCCOc1cc3c(cc1OC)C(=O)N1CC4(CC4)C[C@H]1C=N3)N=C[C@@H]1CCCCN1C2=O` [Compound 1-16, (S)-7-methoxy-8-((5-(((S)-2-methoxy-12-oxo-6a,7,8,9,10,12-hexahydrobenzo[e]pyrido[1,2-a][1,4]diazepin-3-yl)oxy)pentyl)oxy)-1,11a-dihydro-3H,5H-spiro[benzo[e]pyrrolo[1,2-a][1,4]diazepine-2,1′-cyclopropan]-5-one] showed a concentration for a half-maximal effect (EC50) of 0.146 nM and an Emax of 89.6%. In addition, in assay [2], the response was half-maximal at 0.038 nM (EC50) and the Emax was 92.3%.

With `COc1cc2c(cc1OCc1cccc(COc3cc4c(cc3OC)C(=O)N3CC5(CC5)C[C@H]3C=N4)n1)N=C[C@@H]1CC3(CC3)CN1C2=O` [Compound 1-17, (11aS,11a″S)-8,8″-((pyridine-2,6-diylbis(methylene))bis(oxy))bis(7-methoxy-1,11a-dihydro-3H,5H-spiro[benzo[e]pyrrolo[1,2-a][1,4]diazepine-2,1′-cyclopropan]-5-one)], in assay [1], the EC50 was 0.017 nM and the Emax came out at 99.9%. Moreover, in assay [2], the EC50 worked out at 0.005 nM and the Emax came out at 99.7%.

Regarding `COc1cc2c(cc1OCc1cc(O)cc(COc3cc4c(cc3OC)C(=O)N3CC5(CC5)C[C@H]3C=N4)c1)N=C[C@@H]1CC3(CC3)CN1C2=O` [Compound 1-18, (11aS,11a″S)-8,8″-(((5-hydroxy-1,3-phenylene)bis(methylene))bis(oxy))bis(7-methoxy-1,11a-dihydro-3H,5H-spiro[benzo[e]pyrrolo[1,2-a][1,4]diazepine-2,1′-cyclopropan]-5-one)], the values for the 50% effective concentration (EC50) in assay [1] and in assay [2] were 0.398 nM and 0.126 nM, respectively. Moreover, the results for the Emax in assay [1] and in assay [2] were 80.3% and 89.8%, respectively.

Usually EC50 stands for the concentration needed to bring the measured effect to its halfway point. Lower therefore signals an effect from little substance.
